“And” between values parts separate entries of the source, which are not always exact repeats. Equal entries are not always repeated.
How the values were obtained:
[1] = tested on: A549 cell; assay: Cytotoxicity test (SRB method) for A549 cells; format: cell-based, human; conditions: for EC50: A549 human lung cancer cell, SRB, read-out: ED50(nM) for A549
From the text: Human lung carcinomas A549 and […] were used for determining cytotoxicity of the compounds of the present invention according to the Sulfrhodamine-B (SRB) method which was developed by NCI in 1989 in order to determine in vitro anticancer activity of drugs.
Cells to be used in the experiment were separated from a surface using 0.5% Trypsin-EDTA solution and suspended in a density of 5×10^4 cell/ml therein. The cell suspension was introduced into a 96-well plate in an amount of 180/well and incubated for 24 hours in a 5% CO2 incubator of 37° C. Samples were dissolved in dimethylsulfoxide and then diluted by water distilled in advance for three times just before the experiment. Forty-one (41) samples were prepared into 4 types of final concentrations, i.e., 0.1, 0.03, 0.01 and 0.003 mg per ml of the medium. The diluted sample solutions were added to the 96-well plate in the amount of 20 μl/well and incubated for 48 hours in a CO2 incubator of 37° C. At the time of adding the samples, Tz (Time zero) plate was taken. The medium was removed from the Tz plate and each of the plates after incubation were completed. Ten (10)% […] (TCA) was added in the amount of […], and allowed to stand for 1 hour at 4° C. to fix the cells on the bottom surface of the plate. After the cells were fixed, the plate was washed five to six times with water to completely remove the remaining TCA solution and then dried at room temperature to completely remove the moisture. To the fully dried plate was introduced a dye solution in the amount of […] in which 0.4% SRB was dissolved in 1% acetic acid solution. […] After the dyeing process, the plate was dried again at room temperature. 100 ml of 10 mM Tris solution was added thereto in order to dissolve the dye, and then O.D. (optical density) was determined by microplate reader at 520 nm.
ED50 values for cancer cells were calculated as follows. The amount of SRB protein was analyzed at the time when incubation started by the addition of the sample. This amount was named time zero (Tz). The O.D. value obtained from a group which was not treated by the sample was named Control group (C) and the O.D. value obtained from a group which was treated by the sample was named Test group (T).
The degree of cytotoxicity of the compounds was calculated from Tz, C and T values according to the following equation.
That is, in the case of Tz≧T, the degree was calculated by
(T−Tz)/(C−Tz)×100(%), and
• in the case of Tz<T, the degree was calculated by […].
From the values thus obtained, ED50 value which is defined as the concentration at which growth of the cancer cell is inhibited by 50% was calculated using the regression function of Excel program.

[2] = tested on: Lewis Lung Cancer Cell (LLC); assay: Anti-cancer test for BDF1 mouse transplanted by Lewis Lung Cancer Cell, Experiment 2-1 (formulae 1a, 1b); format: in vivo; conditions: peritoneal injection 0.06 mmole/kg/day at days 1, 2, 4, 7, 8 (etoposide 36 mg/kg), cancer volume at 14 to 16 days
From the text: In order to evaluate the anti-cancer activity of the compounds of the present invention, LLC, which is a lung cancer cell of mouse, was transplanted into the hypodermic region of BDF1 mouse to induce a solid cancer. […] Experiment for the compounds of formulae (1a) and (1b) and that for the compound of formula (1c) were separately carried out.
Male BDF1 mouse (Weight 18 to 25 g), being in good health and purchased from Korea Biolink Co., was used as a test animal.
The mice were bred at a place controlled to the temperature of 23 to 24° C. while provided with water and feed ad libitum. As the feed, feed for mouse containing no antibiotics was used. The hypodermic tissue of C57BL/6 mouse, which includes cells cultured therein for 14 days, was taken up. Sterilized cold physiological saline was added to the tissue in the amount of 5 ml/g tissue to make a cell suspension. This cell suspension of 0.2 ml was transplanted into the hypodermic region of armpit of BDF1 mouse.
(§1) Each group includes 5 mice. After 24 hours from the transplantation, each test compound of formulae (1a) and (1b) was dissolved in 4% Tween 80 and injected peritoneally in the amount of 0.2 ml and in a concentration of 0.06 mmole/kg/day (that is, 0.06 mmole of each test compound was dissolved in 10 ml of 4% Tween 80, and then 0.2 ml of the resulting solution was peritoneally injected into a mouse). Only 4% Tween 80 was injected for the negative control group, and the same moles of etoposide (36 mg/kg) was injected for the positive control group. The injection was performed five times at 1, 2, 4, 7 and 8 days from the transplantation of cancer.
The anti-cancer effect was determined by measuring the volume of cancer of the control and test groups at 14 to 16 days from the administration of drugs and then calculated as follows. Volume of Cancer(mm^3)=Length(mm)×Width^2(mm^2)/2 Suppression Rate of Cancer Growth(%)=(C−T)×100(%)/C in which • C represents the average volume of cancer (mm^3) of the control group, and • T represents the average volume of cancer (mm^3) of the test group.

[3] = Weight change in the period of drug administration; format: in vivo, mouse; conditions: for Weight of mouse, Day 1: Day 1 from the cancer cell transplantation; for Weight of mouse, Day 2: Day 2 from the cancer cell transplantation; for Weight of mouse, Day 3: Day 3 from the cancer cell transplantation; for Weight of mouse, Day 4: Day 4 from the cancer cell transplantation; for Weight of mouse, Day 5: Day 5 from the cancer cell transplantation; for Weight of mouse, Day 6: Day 6 from the cancer cell transplantation; for Weight of mouse, Day 7: Day 7 from the cancer cell transplantation; for Weight of mouse, Day 8: Day 8 from the cancer cell transplantation
Procedure: as §1
As an index of toxicity, the weight change during the period of drug administration was recorded for the compounds of formulae (1a) and (1b) compared with the comparison compound of Etoposide.

Row | SMILES | cytotoxicity compared with DPT ([1]; A549, in words) | EC50 ([1]; 48 hours incubation) | Suppression Rate for LLC [2] | Weight of mouse, Day 1 [3] | Weight of mouse, Day 2 [3] | Weight of mouse, Day 3 [3] | Weight of mouse, Day 4 [3] | Weight of mouse, Day 5 [3] | Weight of mouse, Day 6 [3] | Weight of mouse, Day 7 [3] | Weight of mouse, Day 8 [3] | ED50(mg/mL) for A549 ([1]; A549, SRB, 48 hours incubation, Table 2)
1 | COc1cc(C2c3cc4c(cc3CC3COC(=O)C32)OCO4)cc(OC)c1OC(=O)NCCO (centres unmarked) [Compound 1b-5, 4′-demethyl-4′-O-(2-hydroxyethyl)carbamoyl-1-deoxypodophyllotoxin] | stronger cytotoxicity than DPT | 61.5 nM | 95.1% | 23.4 g | 23.8 g | 22.2 g | 23.8 g | 23.4 g | 23.8 g | 23 g | 23.2 g | –
2 | COc1cc(C2c3cc4c(cc3CC3COC(=O)C32)OCO4)cc(OC)c1OC(=O)CCCN (centres unmarked) [Compound 1a-11, 4′-demethyl-4′-O-(4-aminobutanoyl)-1-deoxypodophyllotoxin] | – | 91.6 nM | 82% | 22.8 g | 24 g | 24.2 g | 25 g | 24.4 g | 25.4 g | 25.4 g | 25.5 g | –
3 | COc1cc(C2c3cc4c(cc3CC3COC(=O)C32)OCO4)cc(OC)c1OC(=O)NC(C)C (centres unmarked) [Compound 1b-2, 4′-demethyl-4′-O-isopropylcarbamoyl-1-deoxypodophyllotoxin] | – | 153 nM | 90% and 90.1% | 22.8 g | 23.6 g | 23.2 g | 25 g | 25 g | 26.1 g | 26 g | 26 g | –
4 | COc1cc(C2c3cc4c(cc3CC3COC(=O)C32)OCO4)cc(OC)c1OC(=O)CCCCN (centres unmarked) [Compound 1a-12, 4′-demethyl-4′-O-(5-aminopentanoyl)-1-deoxypodophyllotoxin] | – | 90.3 nM | 82% | 22.8 g | 24.2 g | 25 g | 25.4 g | 24.8 g | 26 g | 25.8 g | 26.2 g | –
5 | COc1cc([C@@H]2c3cc4c(cc3[C@@H](O[C@@H]3O[C@@H]5CO[C@@H](C)O[C@H]5[C@H](O)[C@H]3O)[C@H]3COC(=O)[C@H]23)OCO4)cc(OC)c1O [Etoposide, reference compound] | – | 1990 nM | 90% and 90.8% | 23 g | 24 g | 25.1 g | 26 g | 25.9 g | 26.3 g | 25.6 g | 26.6 g | 1.102 mg/mL
6 | COc1cc(C2c3cc4c(cc3CC3COC(=O)C32)OCO4)cc(OC)c1OC(=O)NC1CCCCC1 (centres unmarked) [Compound 1b-4, 4′-demethyl-4′-O-cyclohexylcarbamoyl-1-deoxypodophyllotoxin] | – | 163 nM | 88% | 23 g | 23.9 g | 25 g | 26 g | 25 g | 26 g | 26 g | 25.5 g | –

From patent US6894075B2, “4′-demethyl-4′-O-substituted-1-deoxypodophyllotoxin derivative and geometric isomer thereof, process for the preparation thereof and anti-cancer composition comprising the same” (priority 2000, dated 2005)
